According to US10139394B2, “Method for controlling cancer metastasis or cancer cell migration by modulating the cellular level of lysyl tRNA synthetase” (Medicinal Bioconvergence Research Center, priority 2008, dated 2018):

Tested on: KRS and 67LR
Assay: Co-immunoprecipitation of KRS with 67LR
Type: cell-based, human
Conditions: 10 ug/ml of laminin for 1 hr; immunoprecipitation with 67LR antibody; FIG. 6
Description: FIGS. 1 to 6 show specific interaction between human KRS and laminin receptor. In FIG. 1, the interaction between full-length human KRS and 37LRP/p40 was determined by yeast two hybrid assay. AIMP1 and AIMP2, the two components of the multi-ARS complex, were used as positive and negative control, respectively. The positive interaction is indicated by blue colony formation on yeast medium containing X-gal. In FIG. 2, 37LRP was synthesized by in vitro translation in the presence of [^35S] methionine and subjected to pull-down with GST-KRS or GST. 37LRP co-precipitated with GST-KRS was detected by autoradiography. In FIG. 3, The peptide regions of KRS and 37LRP involved in their interaction was determined by yeast two hybrid assay as above. […] Myc-KRS was immunoprecipitated with anti-Myc antibody and co-precipitated 67LR and 37LRP were determined by immunoblotting. […] The cells were separated to cytoplasmic and membrane fractions and immunoprecipitated with anti-Myc antibody and co-precipitation of 37LRP and 67LR was determined by Western blotting. […]
In FIG. 7, A549 cells were treated with laminin (10 ug/ml) and the level of 67LR, 37LRP and KRS was determined by Western blotting at the indicated times. […] Myc-KRS was immunoprecipitated and co-precipitation of 67LR was determined by Western blotting. […]

laminin: laminin (Engelbreth-Holm-Swarm murine sarcoma) from Sigma
binding of 67LR and KRS: increased
